Results reported in ChEMBL document CHEMBL3351689, “The discovery of indole full agonists of the neurotensin receptor 1 (NTSR1)” (Bioorg Med Chem Lett, 2014).

What follows are molecules tested against T1, Neurotensin receptor type 1 (Homo sapiens, UniProt P30989) (assay: Antagonist activity at NTSR1 (unknown origin) expressed in CHO cells assessed as inhibition of NT(8-13) peptide-induced change in intracellular Ca2+ level preincubated for 45 mins by FLIPR assay).
Assay type: functional, cell-based

T1 sequence (P30989 whole entry): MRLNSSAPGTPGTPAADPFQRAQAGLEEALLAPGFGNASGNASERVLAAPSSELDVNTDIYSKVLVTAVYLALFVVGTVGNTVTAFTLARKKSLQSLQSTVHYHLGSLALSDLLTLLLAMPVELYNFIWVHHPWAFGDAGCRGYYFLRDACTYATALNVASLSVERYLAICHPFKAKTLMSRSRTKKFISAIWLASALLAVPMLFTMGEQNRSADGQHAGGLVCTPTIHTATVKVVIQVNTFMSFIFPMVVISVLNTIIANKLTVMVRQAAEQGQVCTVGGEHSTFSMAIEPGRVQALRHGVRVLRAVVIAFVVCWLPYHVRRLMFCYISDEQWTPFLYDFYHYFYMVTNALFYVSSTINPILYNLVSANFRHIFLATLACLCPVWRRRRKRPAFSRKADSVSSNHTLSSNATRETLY

For COc1cccc(OC)c1-c1cc(C(=O)NC2(C(=O)O)C3CC4CC(C3)CC2C4)nn1-c1ccc(C(=O)N(C)CCCN(C)C)cc1C(C)C (centres undefined), which IC50 is on record?
Its IC50 is 0.004 µM.

For COc1cccc(OC)c1-c1cc(C(=O)NC2(C(=O)O)C3CC4CC(C3)CC2C4)nn1-c1ccnc2cc(Cl)ccc12 (centres undefined) [REMINERTANT], which IC50 is on record?
The IC50 was 0.082 µM.

These molecules were tested against T1, Neurotensin receptor type 1 (assay: Agonist activity at NTSR1 (unknown origin) expressed in CHO cells assessed as potentiation of NT(8-13) peptide-induced change in intracellular Ca2+ level preincubated for 45 mins by FLIPR assay).
Assay type: functional, cell-based

CC(C)C[C@H](NC(=O)Cn1ccc2cc(-c3cnc4ccccc4c3)ccc21)C(=O)O was tested. Which EC50 did it give?
Its EC50 is 2.05 µM.

For CC(C)C[C@H](NC(=O)Cn1ccc2ccccc21)C(=O)O, which EC50 is on record?
Its EC50 is 6.65 µM.

CC(C)C[C@H](NC(=O)Cn1ccc2cc(Br)ccc21)C(=O)O was tested. Which EC50 did it give?
Its EC50 is 9.99 µM.

With CC(C)C[C@H](NC(=O)Cn1ccc2cc(N)ccc21)C(=O)O as the molecule, how does the EC50 read?
The EC50 was 25.8 µM.

How did the EC50 turn out when CC(C)C[C@H](NC(=O)Cn1ccc2cc(-c3ccccc3)ccc21)C(=O)O was run?
The EC50 was 9.44 µM.

Which EC50 does the source give for CC(C)C[C@H](NC(=O)Cn1ccc2cc(-c3cccnc3)ccc21)C(=O)O here?
The EC50 was 15.4 µM.

How did the EC50 turn out when CC(C)C[C@H](NC(=O)Cn1ccc2cc(-c3cccc4ccccc34)ccc21)C(=O)O was run?
The EC50 was 3.26 µM.

How did the EC50 turn out when CC(C)C[C@H](NC(=O)Cn1ccc2cc(NS(=O)(=O)c3cccc4ccccc34)ccc21)C(=O)O was run?
The EC50 was 9.39 µM.

CC(C)C[C@H](NC(=O)Cn1ccc2cc(NC(=O)c3ccnc4ccccc34)ccc21)C(=O)O was tested. Which EC50 did it give?
Its EC50 is 55.1 µM.

With CC(C)C[C@H](NC(=O)Cn1ccc2cc(-c3cccc4cnccc34)ccc21)C(=O)O as the molecule, how does the EC50 read?
Its EC50 is 4.96 µM.

How did the EC50 turn out when CC(C)C[C@H](NC(=O)Cn1ccc2cc(-c3cncc4ccccc34)ccc21)C(=O)O was run?
Its EC50 is 3.24 µM.

CC(C)C[C@H](NC(=O)Cn1ccc2cc(Nc3ccc4cnccc4c3)ccc21)C(=O)O was tested. Which EC50 did it give?
Its EC50 is 7.72 µM.

COc1cccc(CC(=O)Nc2ccc3c(ccn3CC(=O)N[C@@H](CC(C)C)C(=O)O)c2)c1 was tested. Which EC50 did it give?
The EC50 was 24.2 µM.

For CC(C)C[C@H](NC(=O)Cn1ccc2cc(N(Cc3ccnc4ccccc34)Cc3ccnc4ccccc34)ccc21)C(=O)O, which EC50 is on record?
Its EC50 is 2.12 µM.

Which EC50 does the source give for COC(=O)[C@H](CC(C)C)NC(=O)Cn1ccc2cc(-c3cnc4ccccc4c3)ccc21 here?
Its EC50 is over 100 µM.

Which EC50 does the source give for CC(C)C[C@@H](CO)NC(=O)Cn1ccc2cc(-c3cnc4ccccc4c3)ccc21 here?
Its EC50 is over 100 µM.

How did the EC50 turn out when CC(C)C[C@H](NC(=O)Cn1ccc2cc(-c3cnc4ccccc4c3)ccc21)c1nn[nH]n1 was run?
The EC50 was 5.17 µM.

How did the EC50 turn out when O=C(O)CNC(=O)Cn1ccc2cc(-c3cnc4ccccc4c3)ccc21 was run?
The EC50 was over 100 µM.

How did the EC50 turn out when C[C@H](NC(=O)Cn1ccc2cc(-c3cnc4ccccc4c3)ccc21)C(=O)O was run?
Its EC50 is over 100 µM.

With CC(C)[C@H](NC(=O)Cn1ccc2cc(-c3cnc4ccccc4c3)ccc21)C(=O)O as the molecule, how does the EC50 read?
Its EC50 is over 100 µM.

Which EC50 does the source give for O=C(Cn1ccc2cc(-c3cnc4ccccc4c3)ccc21)N[C@@H](Cc1ccccc1)C(=O)O here?
Its EC50 is 4.33 µM.

Which EC50 does the source give for CC(C)C[C@@H](NC(=O)Cn1ccc2cc(-c3cnc4ccccc4c3)ccc21)C(=O)O here?
Its EC50 is over 100 µM.

With COC(=O)[C@@H](CC(C)C)NC(=O)Cn1ccc2cc(-c3cnc4ccccc4c3)ccc21 as the molecule, how does the EC50 read?
Its EC50 is over 100 µM.

With COC(=O)[C@H](CC(C)C)NC(=O)Cn1ccc2cc(-c3cccc4ccccc34)ccc21 as the molecule, how does the EC50 read?
The EC50 was over 100 µM.

O=C(O)CNC(=O)Cn1ccc2cc(-c3cccc4ccccc34)ccc21 was tested. Which EC50 did it give?
Its EC50 is over 100 µM.

Which EC50 does the source give for CC(C)[C@H](NC(=O)Cn1ccc2cc(-c3cccc4ccccc34)ccc21)C(=O)O here?
The EC50 was over 100 µM.

For CC(C)C[C@@H](NC(=O)Cn1ccc2cc(-c3cccc4ccccc34)ccc21)C(=O)O, which EC50 is on record?
The EC50 was over 100 µM.

How did the EC50 turn out when COC(=O)[C@@H](CC(C)C)NC(=O)Cn1ccc2cc(-c3cccc4ccccc34)ccc21 was run?
The EC50 was over 100 µM.

For CC(C)C[C@H](NC(=O)Cn1ccc2ccc(-c3cnc4ccccc4c3)cc21)C(=O)O, which EC50 is on record?
Its EC50 is 3.28 µM.

Which EC50 does the source give for CC(C)C[C@H](NC(=O)Cn1ccc2ccc(-c3cccc4ccccc34)cc21)C(=O)O here?
The EC50 was 2.85 µM.

How did the EC50 turn out when CC(C)C[C@H](NC(=O)Cn1ccc2ccc(-c3cncc4ccccc34)cc21)C(=O)O was run?
The EC50 was 7.46 µM.

CC(C)C[C@H](NC(=O)Cn1ccc2cc(NS(=O)(=O)c3cccc4cccnc34)ccc21)C(=O)O was tested. Which EC50 did it give?
Its EC50 is 8.99 µM.
